Patent US20240124483A1, “Methods for the Treatment of Fibrotic Disease” (SHY Therapeutics, LLC, priority 2021, published 2024)
Where two headings read alike, the source gives them in different places.

What was measured:
[1] = biological target: KRas Q61H mutant (Homo sapiens (Human), UniProt P01116, Q61H); assay: Ras GTP Binding Domain Inhibition Assay, KRas Q61H mutant
Description: (§1) A Ras Superfamily Activity Assay (as disclosed in International Application No. PCT/US2018/038613, filed Jun. 20, 2018, which is incorporated by reference in its entirety) was used as a specific assay to evaluate compounds against the following for the following Ras Superfamily proteins: KRas wild type, KRas Q61H mutant, KRas G12C mutant, KRas G12D mutant, Rac-1, and Rho-A.
(§2) Buffer-I: • 25 mM Tris-HCl, pH 7.4 • 27 mM KCl • 137 mM NaCl • 1 mM MgCl2 • 1 mM DTT
(§3) Buffer-II: • 50 mM Tris-HCl, pH 7.0 • 1 mM MgCl2 • 1 mM DTT
(§4) The small GTPases proteins: KRas wild type. KRas Q61H mutant, KRas G12C mutant, KRas G12D mutants, Rac-1, and Rho-A were expressed as His-tagged proteins. In addition, the Guanosine nucleotide Exchange Factor (GEF) Sos protein (residues 556-1049) was expressed as a His-tagged protein. In cells, the guanine nucleotide exchange factor Sos protein promotes activation of Ras proteins by stimulating an exchange of GDP for GTP. The inclusion of Sos to the Ras GTP binding domain inhibition assay may be considered as an alternative representation of physiological cellular conditions for evaluating the inhibitory activity of some of the tested small molecules.
(§5) For the assay, all purified small GTPases proteins were diluted in Buffer-I or Buffer-II to a final concentration of 10-30 μg/mL. 200 μL of each diluted protein was added to a nickel-coated 96-well plate and incubated overnight at 4° C. Then the protein solution was discarded and 200 μL of Buffer-I or Buffer-II was added to each well in the presence of 1% DMSO. Compounds to be tested were added to the protein-coated wells at final concentration of 20 μM, and incubated for 3 hours at room temperature with and without 10-30 μg/mL of Sos added to the final hour of the incubation. When performing IC50 measurements a serial dilution of all tested concentrations was added. Then Cy3-GTP or Cy5-GTP was added to each well to a final concentration of 100 nM. The labeled GTP was incubated for 45 minutes at room temperature. Following GTP incubation, wells were washed 3× in Buffer-I or Buffer-II and 200 μL of Buffer-I or Buffer-II was added to each well. Following washes, the amount of bound labeled-GTP was measured using a SpectraMax M3 (Molecular Devices).

[2] = biological target: KRas G12C mutant (Homo sapiens (Human), UniProt P01116, G12C); assay: Ras GTP Binding Domain Inhibition Assay, KRas G12C mutant
Chain of KRas G12C mutant (P01116 other isoform, or with tags, fused parts or gaps G12C): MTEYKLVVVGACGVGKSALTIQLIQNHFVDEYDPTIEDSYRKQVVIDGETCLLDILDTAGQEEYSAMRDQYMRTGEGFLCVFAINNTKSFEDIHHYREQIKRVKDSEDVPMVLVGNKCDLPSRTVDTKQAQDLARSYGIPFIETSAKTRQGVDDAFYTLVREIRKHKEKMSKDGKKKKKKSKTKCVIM
Description: as §1, §2, §3, §4, §5

[3] = biological target: Rac-1 (Homo sapiens (Human), UniProt P63000); assay: Ras GTP Binding Domain Inhibition Assay, Rac-1
Description: as §1, §2, §3, §4, §5

[4] = system: Smad2/3 phosphorylation; assay: Phospho-Smad2/3 Inhibition Assay in Panc-1 (western blot); format: cell-based; details: Homo sapiens; for inhibition at 10 µM: 3 hours, PANC-1 stimulated with 10 ng/ml TGF-b1 for 1 hour, read-out: % inh of Smad2/3 phosphorylation in PANC-1; for IC50: PANC-1, TGF-b1 stimulated
Description: Cell lines: Human tumor-derived pancreatic cancer cell line Panc-1 and mouse muscle myoblast C2C12 were purchased from American Type Culture Collection and grown in complete DMEM-High Glucose, supplemented with penicillin (100 U/mL), streptomycin (100 μg/mL), and 10% heat-inactivated FBS at 37° C. in a humidified incubator with 5% CO2.
Method: Cells were plated at 350000 cells/well density in a 12-well plate, allowed 3 hours to adhere to the plate, then starved in the appropriate medium in the presence of 0.5% FBS overnight. The small molecules to be tested were added to the cells in the final concentration of 10 μM in the presence of 0.3% DMSO for 3 hours incubation at 37° C. For IC50 value determination, serial dilutions of compounds were added to cells under the same conditions. Next, Panc-1 cells were stimulated with 10 ng/ml TGF-b1 for 1 hour, and C2C12 cells were stimulated with 10 ng/ml TGF-b1 for 20 minutes (recombinant human TGF-b1, R&D Systems). After stimulation cells were lysed with lysis buffer containing 1% Triton X-100, EDTA, and Halt™ Protease & Phosphatase Inhibitor Cocktail (Thermo Scientific). Protein concentration was assessed by BCA protein assay (Thermo Scientific). Phosphorylation level of Smad2/Smad3 was determined by western blot.
Western blot protocol: Equal amounts of protein (15-50 μg) were separated by SDS-PAGE and transferred to nitrocellulose membranes (Invitrogen by Thermo Fisher Scientific). The membrane was stained with Ponceau S Stain (Boston BioProducts) to verify uniform protein loading. Membranes were blocked with 10% milk and phosphorylation levels of Smad2/Smad3 were assessed by incubating overnight at 4° C. with the following antibodies: Phospho-Smad2 (Ser465/467) and Phosph-Smad3 (Ser423/425), both from Cell Signaling Technology. Then the membranes were incubated with HRP-conjugated secondary antibody (Jackson Immunoresearch, West Grove, PA). Bands were incubated in Amersham ECL Prime Western Blotting Detection Reagent (GE Healthcare) and visualized using the ChemiDoc MP imaging system (Bio-Rad).

[5] = + SOS, read-out: KRas Q61H mutant + SOS: % inh.
[6] = without SOS, read-out: KRas Q61H mutant: % inh.
[7] = + SOS, read-out: KRas G12C mutant + SOS: % inh.
[8] = without SOS, read-out: KRas G12C mutant: % inh.
[9] = + SOS, read-out: Rac-1 + SOS: % inh.
[10] = without SOS, read-out: Rac-1: % inh.

Chain of KRas Q61H mutant (P01116 other isoform, or with tags, fused parts or gaps Q61H): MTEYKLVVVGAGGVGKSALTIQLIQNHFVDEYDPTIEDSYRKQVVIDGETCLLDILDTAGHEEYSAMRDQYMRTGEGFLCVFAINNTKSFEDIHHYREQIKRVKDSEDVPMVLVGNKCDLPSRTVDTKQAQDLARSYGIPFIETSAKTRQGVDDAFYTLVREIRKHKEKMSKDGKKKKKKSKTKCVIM

Structure (SMILES)	inhibition at 20 µM [1, 5]	inhibition at 20 µM [1, 6]	inhibition at 20 µM [2, 7]	inhibition at 20 µM [2, 8]	inhibition at 20 µM [3, 9]	inhibition at 20 µM [3, 10]	inhibition at 10 µM [4]	IC50 [4]	IC50 ([1]; + SOS)
CO[C@H]1CC[C@@H](Nc2nc(-c3nccn3C)nc3sc(-c4ccn(C)n4)c(-c4ccccc4)c23)C1 (racemic) [Compound 5, rac-N-((1R,3S)-3-Methoxycyclopentyl)-2-(1-methyl-1H-imidazol-2-yl)-6-(1-methyl-1H-pyrazol-3-yl)-5-phenylthieno[2,3-d]pyrimidin-4-amine]	76 to 100%	26 to 45%	76 to 100%	26 to 45%	46 to 75%	46 to 75%	76 to 100%	5 to 10 µM	–
COc1cccc(-c2sc3nc(-c4nccn4C)nc(NC4CCC(OC)C4)c3c2C)c1F (racemic) [Compound 10, rac-6-(2-Fluoro-3-methoxyphenyl)-N-((1R,3S)-3-methoxycyclopentyl)-5-methyl-2-(1-methyl-1H-imidazol-2-yl)thieno[2,3-d]pyrimidin-4-amine and rac-6-(2-Fluoro-3-methoxyphenyl)-N-((1R,3R)-3-methoxycyclopentyl)-5-methyl-2-(1-methyl-1H-imidazol-2-yl)thieno[2,3-d]pyrimidin-4-amine]	46 to 75%	46 to 75%	46 to 75%	76 to 100%	46 to 75%	46 to 75%	1 to 25%	–	–
CO[C@H]1CC[C@@H](Nc2nc(-c3nccn3C)nc3sc(-c4ccn(C(C)C)n4)c(C)c23)C1 (racemic) [Compound 12, rac-6-(1-Isopropyl-1H-pyrazol-3-yl)-N-((1R,3S)-3-methoxycyclopentyl)-5-methyl-2-(1-methyl-1H-imidazol-2-yl)thieno[2,3-d]pyrimidin-4-amine]	76 to 100%	76 to 100%	76 to 100%	46 to 75%	46 to 75%	46 to 75%	1 to 25%	–	5 to 10 µM
CO[C@@H]1CC[C@H](Nc2nc(-c3nccn3C)nc3sc(-c4ccn(C(C)C)n4)c(-c4ccccc4)c23)C1 (single isomer, unassigned) [Compound 11]	76 to 100%	46 to 75%	76 to 100%	46 to 75%	26 to 45%	1 to 25%	46 to 75%	–	1 to 4.99 µM
COCCNc1nc(-c2nccn2C)nc2sc(-c3ccccc3)c(-c3ccccc3)c12 [Compound 1, N-(2-Methoxyethyl)-2-(1-methyl-1H-imidazol-2-yl)-5,6-diphenylthieno[2,3-d]pyrimidin-4-amine]	46 to 75%	46 to 75%	–	46 to 75%	–	76 to 100%	46 to 75%	–	–
COCCN(C)c1nc(-c2nccn2C)nc2sc(-c3ccccc3)c(-c3ccccc3)c12 [Compound 2, N-(2-Methoxyethyl)-N-methyl-2-(1-methyl-1H-imidazol-2-yl)-5,6-diphenylthieno[2,3-d]pyrimidin-4-amine]	–	–	–	26 to 45%	–	26 to 45%	0%	–	–
COCCCNc1nc(-c2nccn2C)nc2sc(-c3ccccc3)c(-c3ccccc3)c12 [Compound 3, N-(3-Methoxypropyl)-2-(1-methyl-1H-imidazol-2-yl)-5,6-diphenylthieno[2,3-d]pyrimidin-4-amine]	46 to 75%	46 to 75%	–	46 to 75%	–	46 to 75%	0%	–	–
COCCNc1nc(-c2nccn2C)nc2sc(-c3ccccc3)c(-c3ccccc3Cl)c12 [Compound 4, 5-(2-Chlorophenyl)-N-(2-methoxyethyl)-2-(1-methyl-1H-imidazol-2-yl)-6-phenylthieno[2,3-d]pyrimidin-4-amine]	–	–	–	26 to 45%	–	26 to 45%	26 to 45%	–	–
COC1CCN(c2nc(-c3nccn3C)nc3sc(-c4ccn(C)n4)c(-c4ccccc4)c23)CC1 [Compound 6, 4-(4-Methoxypiperidin-1-yl)-2-(1-methyl-1H-imidazol-2-yl)-6-(1-methyl-1H-pyrazol-3-yl)-5-phenylthieno[2,3-d]pyrimidine]	46 to 75%	46 to 75%	46 to 75%	26 to 45%	26 to 45%	26 to 45%	0%	–	–
COCCNc1nc(-c2nccn2C)nc2sc(-c3cccc(OC)c3Cl)c(-c3ccc(OC)cc3)c12 [Compound 7, 6-(2-Chloro-3-methoxyphenyl)-N-(2-methoxyethyl)-5-(4-methoxyphenyl)-2-(1-methyl-1H-imidazol-2-yl)thieno[2,3-d]pyrimidin-4-amine]	76 to 100%	26 to 45%	76 to 100%	26 to 45%	46 to 75%	46 to 75%	0%	5 to 10 µM	–
COCCNc1nc(-c2cn(C)cn2)nc2sc(-c3cccc(OC)c3Cl)c(-c3ccc(OC)cc3)c12 [Compound 8, 6-(2-Chloro-3-methoxyphenyl)-N-(2-methoxyethyl)-5-(4-methoxyphenyl)-2-(1-methyl-1H-imidazol-4-yl)thieno[2,3-d]pyrimidin-4-amine]	76 to 100%	46 to 75%	76 to 100%	26 to 45%	46 to 75%	46 to 75%	76 to 100%	5 to 10 µM	–
COCCNc1nc(-c2nccn2C)nc2sc(-c3cccc(OC)c3Cl)c(-c3ccccc3)c12 [Compound 9, 6-(2-Chloro-3-methoxyphenyl)-N-(2-methoxyethyl)-2-(1-methyl-1H-imidazol-2-yl)-5-phenylthieno[2,3-d]pyrimidin-4-amine]	76 to 100%	46 to 75%	76 to 100%	26 to 45%	46 to 75%	46 to 75%	76 to 100%	1 to 4.99 µM	–
COCCn1ccnc1-c1nc(N[C@H]2C[C@@H](OC)C2)c2c(-c3ccccc3)c(-c3ccn(C)n3)sc2n1 [Compound 13, N-((1s,3s)-3-methoxycyclobutyl)-2-(1-(2-methoxyethyl)-1H-imidazol-2-yl)-6-(1-methyl-1H-pyrazol-3-yl)-5-phenylthieno[2,3-d]pyrimidin-4-amine]	76 to 100%	76 to 100%	76 to 100%	76 to 100%	76 to 100%	76 to 100%	46 to 75%	–	1 to 4.99 µM
